Measurements taken from US20110104121A1, “Female Reproductive Tract and Anal Prophylaxes” (priority 2008, published 2011).

Experiments:
uterine cells = assay: relative mRNA expression of SLPI and defensins in uterine cells; type: cell-based; conditions: for relative beta defensin 4 mRNA expression in uterine cells: saline control ~0.4×10^5; for relative uterine alpha defensin 2 expression: saline control ~0.2×10^5
Protocol: (§1) The analysis of SERM activity is carried out using fresh hysterectomy tissues, wherein epithelial cells, neutrophils, NK cells and macrophage/dendritic cells (MAC/DC), which are known to be responsive in culture to sex hormones, are recovered. Using conventional assays, SERMs (e.g., Tamoxifen, bazedoxifene acetate, lasofoxifene and raloxifene, etc) are analyzed for their ability to regulate immunological endpoints which have been identified as optimal for protection against HIV. […] Similarly, ICI 182,780 increased relative vaginal SLPI mRNA levels by 26-fold over saline controls. Furthermore, ICI 182,780, tamoxifen, and Y134 increased relative uterine alpha defensin 2 expression (˜3×10^5, ˜4×10^5, and −1.2×10^6, respectively) compared to ˜0.2×10^5 in the saline control. ICI 182,780, Y134, and PHTPP were also found to increase relative vaginal alpha defensin 2 expression (˜2.4×10^5, ˜4×10^5, and ˜1.6×10^5, respectively) compared to −7.5×10^4 in the saline control.

vaginal cells = assay: relative mRNA expression of SLPI and defensins in vaginal cells; type: cell-based; conditions: for relative vaginal alpha defensin 2 expression: saline control printed −7.5×10^4; for relative mRNA expression of beta defensin 1 in vaginal cells: saline control ~1.1×10^8
Protocol: as §1

[1] = tested on: primary uterine epithelial cells; assay: MIP3 alpha secretion by primary uterine epithelial cells, ELISA; type: cell-based, mice; conditions: 20 hours, 37° C., vs media control
Protocol: FIG. 1 depicts levels of MIP3 alpha secretion by primary uterine epithelial cells at 20 hours after exposure to estrogen, ICI […] or the SERMs indicated. P value is comparison to media control.
Indeed, FIG. 1 summarizes the effects of estradiol (estrogen) and four known SERMS on the secretion of MIP3 alpha (aka CCL20), a known potent endogenous antimicrobial peptide, by primary uterine epithelial cells in culture. Epithelial cells were isolated from the uteri of intact mice by enzymatic digestion prior to incubation at 37° C. in the presence or absence of known SERMS for 20 hours. Following incubation in 96-well plates, media was collected and assayed by ELISA for MIP3 alpha.

[2] = tested on: primary uterine epithelial cells; assay: mouse KC (IL8) secretion from primary uterine epithelial cells; type: cell-based; conditions: 24-hour treatment
female macrophages = assay: LPS-induced TNFalpha secretion by female macrophages; type: cell-based
[3] = tested on: Monocytes-derived Dendritic cells (MDDCs); assay: surface receptor expression on monocyte-derived dendritic cells, flow cytometry; type: cell-based, human
Protocol: Materials and Methods. Uterine epithelial cell line (ECC-1) was cultured according to established methods to establish cellular polarity with apical and basolateral compartments (Schaefer, et al. (2004) Immunology 112:428-436). The formation of tight junctions by the epithelial cell monolayer was routinely monitored by measurement of transepithelial resistance (TER) (Richardson, et al. (1995) Biol. Reprod. 53:488-498). […] The pooled media was centrifuged for 5 minutes at 10,000 g and stored at −80° C. for use in subsequent studies.
Peripheral blood mononuclear cells (PBMC) were obtained from residues of platelet pheresis according to known methods (Dietz, et al. (2006) Transfusion 46:2083-2089). Monocytes were subsequently enriched with Rosette Sep reagent (StemCell, Vancouver, BC). Blood specimens were from healthy adult males. Monocytes-derived Dendritic cells (MDDCs) were in vitro generated with GM-CSF (50 ng/ml) and IL-4 (50 ng/ml) (PeproTech Inc, Rocky Hill, N.J.) (Sallusto Lanzavecchia (1994) J. Exp. Med. 179:1109-1118). MDDCs were differentiated for 7 days in the presence or absence of 24-hour conditioned medium (1:1 dilution) obtained from ECC-1. In some experiments TGF-beta receptor 1 blocker, SB431542 (10 μM; Tocris Cookson, Inc., St. Louis, Mo.) (Eriksson, et al. (2006) Am. J. Reprod. Immunol. 56:321-328; Shen, et al. (2007) Clin. Exp. Immunol. 149(1):155-61) was simultaneously added with ECC-1 CM for the entire duration of the differentiation. As positive control for TGF-beta effects on MDDCs, experimental conditions were included in which MDDCs were differentiated with recombinant human TGF-beta1 at three different concentrations (0.1, 1 and 10 ng/mL) in the presence or absence of SB431542. Following 7 days of culture, cells were harvested, washed and subsequently used for flow cytometry analyses.
Following six days of in vitro differentiation, surface staining of MDDCs was performed with the following fluorochrome-labeled monoclonal antibodies: CD1a (HI149), CD14 (61D3), from Ebioscience (San Diego, Calif.); and CD163 (215927), CCR5 (45531), CXCR4 (12G5), DC-SIGN (120507) from R&D Systems (Minneapolis, Minn.). Matched isotype controls for the antibodies were used to control for non-specific binding. Following antibody staining, cells were washed with staining buffer and fixed with 2% methanol-free paraformaldehyde in 1×PBS (2% PFA), followed by analysis with a Becton Dickinson FACS CALIBUR (San Jose, Calif.). The acquired FACS data were analyzed by CELL QUEST (BD Biosciences).
Statistical analysis was performed using two-way analysis of variance (ANOVA) ([…] Prism Version 5.0; […] Software Inc., San Diego, Calif.). A value of P<0.05 was considered significant.

[4] = tested on: uterine stromal fibroblasts; assay: HGF secretion by uterine stromal fibroblasts, ELISA; type: cell-based, human
Protocol: (§2) Materials and Methods. FRT mucosal tissue was obtained following surgery from women who underwent hysterectomies. Tissues used in this study were distal to the sites of pathology and were determined to be unaffected by disease upon inspection by a trained pathologist. Tissues were transported from Pathology and procedures to isolate stromal fibroblasts began within 2 hours of surgery.
Tissues from the Fallopian tube, uterus, cervix, and ectocervix were dispersed into epithelial and stromal cell fractions by enzymatic digestion (Fahey, et al. (1998) Immunol. Invest. 27:167-180; Meter, et al. (2005) Fertil. Steril. 84:191-201). Briefly, tissues were minced under sterile conditions into 1-2 mm fragments and then digested at 37° C. for 1 hour using a “PHC” enzyme mixture that contained final concentrations of 3.4 mg/ml pancreatin (Gibco Life Technologies, Rockville, Md.), 0.1 mg/ml hyaluronidase (Worthington Biochemical Corporation, Freehold, N.J.), 1.6 mg/ml collagenase (Worthington) and 2 mg/ml D-glucose (Sigma, St Louis, Mo.) in Hank's balanced salt solution (Gibco, Invitrogen). This procedure was chosen to maximize digestion of the extracellular matrix, as verified by microscopy and by hematoxylin and eosin staining of frozen sections after digestion, while minimizing digestion of cell surface antigens as determined by flow cytometry. After incubating in this enzyme cocktail, cells and tissue fragments were collected, washed with complete media consisting of DMEM/F-12 without phenol red (Gibco) supplemented with 10% heat-inactivated fetal calf serum (Hyclone, Logan, Utah), 2 mM fresh L-glutamine, 25 mM HEPES, […] primocin (InvivoGen, San Diego, Calif.) and separated from tissue aggregates by sedimentation for 5 minutes. Medium containing predominantly single cells and small epithelial cell glands were removed and dispersed through a 250 μm nylon mesh screen (Small Parts, Miami Lake, Fla.). […]
(§3) Stromal cell fractions were washed, resuspended in complete media, and cultured in T75 flasks. […] When confluent, the cells in the flask were counted and sub-cultured into 24 well culture plates (Fisher Scientific, Pittsburgh, Pa.). […]
Once the cells reached confluence, they were cultured in complete media with 10% stripped FBS (Hyclone). […] In related experiments, when cell proliferation was analyzed, harvested from culture wells and counted by Coulter Counter. […] Viability of the cultures was determined using trypan blue dye exclusion and manual counting of live vs. dead cells on a hemocytometer. […]

[5] = tested on: cervix stromal fibroblasts; assay: HGF secretion by cervix stromal fibroblasts, ELISA; type: cell-based, human; conditions: estradiol
Protocol: as §2
(§4) Tissues from the Fallopian tube, uterus, cervix, and ectocervix were dispersed into epithelial and stromal cell fractions by enzymatic digestion (Fahey, et al. (1998) Immunol. Invest. 27:167-180; Meter, et al. (2005) Fertil. Steril. 84:191-201). […] This procedure was chosen to maximize digestion of the extracellular matrix, as verified by microscopy and by hematoxylin and eosin staining of frozen sections after digestion, while minimizing digestion of cell surface antigens as determined by flow cytometry. […]
as §3
(§5) Once the cells reached confluence, they were cultured in complete media with 10% stripped FBS (Hyclone). […] In related experiments, when cell proliferation was analyzed, harvested from culture wells and counted by Coulter Counter. […]

[6] = tested on: ectocervix stromal fibroblasts; assay: HGF secretion by ectocervix stromal fibroblasts, ELISA; type: cell-based, human; conditions: estradiol
Protocol: as §2, §4, §3, §5

CCR5-tropic HIV = conditions: in vitro; read-out: 50% inhibitory concentration, CCR5-tropic HIV infectivity; cited from earlier work
[7] = Table 5, control vehicle, N = 3
[8] = Table 4, control vehicle, N = 3

Row | Molecule | increase in relative uterine SLPI mRNA levels over saline controls (uterine cells) | relative beta defensin 4 mRNA expression in uterine cells (uterine cells) | relative mRNA expression of beta defensin 2 in vaginal cells (vaginal cells) | relative vaginal alpha defensin 2 expression (vaginal cells) | MIP3 alpha secretion [1] | secretion of mouse KC (IL8) [2] | TNFalpha (% of Control) (female macrophages; [7]) | relative uterine alpha defensin 2 expression (uterine cells) | relative mRNA expression of beta defensin 1 in vaginal cells (vaginal cells) | TNFalpha (% of Control) (female macrophages; [8]) | further results
1 | Oc1ccc(-c2c(-c3ccccc3)nn3c(C(F)(F)F)cc(C(F)(F)F)nc23)cc1 [PHTPP] | ~8×10^5 | ~8×10^5 | not significantly affected | ~1.6×10^5 | marginal effect | marginal effect | 79.96 ± 6.43 % of Control | – | – | – | relative mRNA expression of beta defensin 2 in uterine cells (uterine cells; saline control ~1×10^5): ~1.55×10^8; relative mRNA expression of beta defensin 1 in uterine cells (uterine cells; saline control ~1.1×10^6): ~1.05×10^8
2 | CC/C(=C(\c1ccccc1)c1ccc(OCCN(C)C)cc1)c1ccccc1 [tamoxifen] | ~2.5×10^5 | ~6×10^5 | not significantly affected | – | marginal effect | marginal effect | – | ~4×10^5 | ~1.75×10^8 | – | relative beta defensin 4 mRNA expression in vaginal cells (vaginal cells; saline control ~1×10^7): ~2.1×10^8
3 | C[C@]12CC[C@@H]3c4ccc(O)cc4CC[C@H]3[C@@H]1CC[C@@H]2O [E2, 17β-estradiol] | – | – | – | – | no effect | – | 73.96 ± 3.00 % of Control | – | – | 73.96 ± 3.00 % of Control | DC-SIGN expression on immature DCs [3]: increases; uterine stromal fibroblast HGF secretion ([4]; 10^−7 M or 10^−8 M estradiol, within 48 hours): significantly increased; estradiol response of HGF at 24 hours, responding patients ([4]; 24 hours after addition of estradiol): two out of five patients; cell numbers, control vs estradiol-treated wells ([4]; counted at 48-hour intervals): did not differ; HGF secretion, six days vs two days of exposure ([4]; estradiol 2, 4, 6 days, CM collected at 48 hour intervals): three times more HGF; HGF secretion by cervix stromal fibroblasts [5]: did not increase; secretion of HGF from ectocervix stromal fibroblasts [6]: no effect; TNFalpha (% of Control) (female macrophages; E2 0.001 nM, control no E2, N = 4): 98.35 ± 3.19 % of Control; TNFalpha (% of Control) (female macrophages; E2 0.01 nM, control no E2, N = 4): 97.72 ± 6.89 % of Control; TNFalpha (% of Control) (female macrophages; E2 0.1 nM, control no E2, N = 4): 94.68 ± 11.62 % of Control
4 | C[C@]12CC[C@@H]3c4ccc(O)cc4C[C@@H](CCCCCCCCC[S+]([O-])CCCC(F)(F)C(F)(F)F)[C@H]3[C@@H]1CC[C@@H]2O (stereo partly shown) [ICI 182,780] | ~3×10^5 | – | not significantly affected | ~2.4×10^5 | significantly increased | significantly increased | – | ~3×10^5 | ~2.15×10^8 | 111.87 ± 15.68 % of Control | increase in relative vaginal SLPI mRNA levels over saline controls (vaginal cells): 26 fold
5 | Lactobacillus-derived CV-N: HIV inhibitor Cyanovirin-N produced by engineered vaginal Lactobacillus (protein, UniProt P81180 1-101, looked up, produced in engineered Lactobacillus) Cyanovirin-N: LGKFSQTCYNSAIQGSVLTSTCERTNGGYNTSSIDLNSVIENVDGSLKWQPSNFIETCRNTQLAGSSELAAECKTRAQQFVSTKINLDDHIANIDGTLKYE | – | – | – | – | – | – | – | – | – | – | IC50 (CCR5-tropic HIV): 0.3 nM
